What was measured:
[1] = system: PC3 cells; assay: NAMPT Cell Proliferation Assay; type: cell-based; conditions: Homo sapiens, PC-3, 120 h, 5 days incubation, cell viability by Cell Titer Glo
Procedure, shortened: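 Cell Titer Glo viability after 5-day exposure (37° C, 5% CO2); PC3, 500 cells/well, RPMI + 10% heat-inactivated FBS, overnight attachment before dosing. Dose range 10 μM to 1×10^−5 μM, 10-fold steps. IC50 = sigmoidal fit of % inhibition.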

[2] = molecular target: NAMPT (human, recombinant, C-terminally His-tagged) (Homo sapiens, UniProt P43490); assay: Time-Resolved Fluorescence Resonance Energy Transfer (TR-FRET) Binding Assay of NAMPT; conditions: without substrates; 6.8 nM NAMPT, 200 nM probe, 3 hours equilibration
Chain of NAMPT (human, recombinant, C-terminally His-tagged) (P43490 whole entry): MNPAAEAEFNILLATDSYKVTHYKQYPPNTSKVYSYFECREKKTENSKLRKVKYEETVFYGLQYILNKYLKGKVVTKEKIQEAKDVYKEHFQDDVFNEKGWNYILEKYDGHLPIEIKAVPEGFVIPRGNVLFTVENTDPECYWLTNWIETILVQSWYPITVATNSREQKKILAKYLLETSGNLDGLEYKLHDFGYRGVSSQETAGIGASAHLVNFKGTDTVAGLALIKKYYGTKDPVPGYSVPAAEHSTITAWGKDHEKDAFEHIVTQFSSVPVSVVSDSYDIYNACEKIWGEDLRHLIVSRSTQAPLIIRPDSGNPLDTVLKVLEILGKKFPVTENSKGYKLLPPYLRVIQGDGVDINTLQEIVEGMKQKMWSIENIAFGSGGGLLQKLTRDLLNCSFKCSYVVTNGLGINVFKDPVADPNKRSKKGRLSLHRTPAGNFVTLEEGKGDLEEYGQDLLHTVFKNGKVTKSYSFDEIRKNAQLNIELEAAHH
Procedure, shortened: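 Read-out is the time-resolved FRET ratio Em520/Em495 (excitation 337 nm) between a terbium anti-His antibody (1 nM) on the enzyme and an Oregon Green 488-labelled nicotinamide-competitive inhibitor probe (200 nM). Enzyme was 6.8 nM, DMSO 2%, pH 7.5 HEPES buffer; 3 h room-temperature equilibration preceded reading.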

[3] = molecular target: NAMPT (Homo sapiens, UniProt P43490); assay: TR-FRET Binding Assay of NAMPT with PRPP; conditions: with 200 μM PRPP and 2.5 mM ATP; 2 nM NAMPT, 2 nM probe, 16 hours equilibration
Chain of NAMPT (P43490 whole entry): as above
Procedure, shortened: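 NAMPT 2 nM + probe 2 nM + Tb-anti-His Ab 1 nM; PRPP 200 μM, ATP 2.5 mM, DMSO 2%; 16 h equilibration before TR-FRET read.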

Row | IC50 [1] | IC50 [2] | IC50 [3] | Compound
1 | 0.0236 µM | 0.256 µM | 0.000169 µM | O=C(NCc1ccn2ccnc2c1)Nc1ccc(OC2CCN(C(=O)[C@@H]3CCCO3)CC2)cc1 [Example 449, 1-(imidazo[1,2-a]pyridin-7-ylmethyl)-3-[4-({1-[(2S)-tetrahydrofuran-2-ylcarbonyl]piperidin-4-yl}oxy)phenyl]urea]
2 | 0.0701 µM | 0.422 µM | 0.000244 µM | O=C(NCc1ccn2ccnc2c1)Nc1ccc(OC2CCN(C(=O)C3CCOCC3)CC2)cc1 [Example 450, 1-(imidazo[1,2-a]pyridin-7-ylmethyl)-3-(4-{[1-(tetrahydro-2H-pyran-4-ylcarbonyl)piperidin-4-yl]oxy}phenyl)urea]
3 | 0.0173 µM | 0.4 µM | 0.000373 µM | O=C(NCc1ccn2ccnc2c1)Nc1ccc(OC2CCN(C(=O)CC3CCOCC3)CC2)cc1 [Example 451, 1-(imidazo[1,2-a]pyridin-7-ylmethyl)-3-(4-{[1-(tetrahydro-2H-pyran-4-ylacetyl)piperidin-4-yl]oxy}phenyl)urea]
4 | 0.0592 µM | 0.293 µM | 0.000285 µM | CC(C)C(=O)N1CC(c2ccc(NC(=O)NCc3ccn4ccnc4c3)cc2)C1 [Example 452, 1-(imidazo[1,2-a]pyridin-7-ylmethyl)-3-{4-[1-(2-methylpropanoyl)azetidin-3-yl]phenyl}urea]
5 | 0.00921 µM | 0.152 µM | 0.000258 µM | CC[C@H](C)C(=O)N1CC(c2ccc(NC(=O)NCc3ccn4ccnc4c3)cc2)C1 [Example 453, 1-(imidazo[1,2-a]pyridin-7-ylmethyl)-3-(4-{1-[(2S)-2-methylbutanoyl]azetidin-3-yl}phenyl)urea]
6 | 0.0422 µM | 0.405 µM | 0.00034 µM | O=C(NCc1ccn2ccnc2c1)Nc1ccc(C2CN(C(=O)CC3CC3)C2)cc1 [Example 454, 1-{4-[1-(cyclopropylacetyl)azetidin-3-yl]phenyl}-3-(imidazo[1,2-a]pyridin-7-ylmethyl)urea]
7 | 0.0035 µM | 0.0167 µM | 0.000194 µM | O=C(NCc1ccn2ccnc2c1)Nc1ccc(C2CN(C(=O)c3ccccc3)C2)cc1 [Example 455, 1-[4-(1-benzoylazetidin-3-yl)phenyl]-3-(imidazo[1,2-a]pyridin-7-ylmethyl)urea]
8 | 0.0496 µM | 0.389 µM | 0.000169 µM | CC(C)OCC(=O)N1CC(c2ccc(NC(=O)NCc3ccn4ccnc4c3)cc2)C1 [Example 456, 1-(imidazo[1,2-a]pyridin-7-ylmethyl)-3-(4-{1-[(propan-2-yloxy)acetyl]azetidin-3-yl}phenyl)urea]
9 | 0.194 µM | 1.14 µM | 0.000487 µM | CC(C)(O)C(=O)N1CC(c2ccc(NC(=O)NCc3ccn4ccnc4c3)cc2)C1 [Example 457, 1-{4-[1-(2-hydroxy-2-methylpropanoyl)azetidin-3-yl]phenyl}-3-(imidazo[1,2-a]pyridin-7-ylmethyl)urea]
10 | 0.183 µM | 0.94 µM | 0.000382 µM | O=C(NCc1ccn2ccnc2c1)Nc1ccc(C2CN(C(=O)[C@H]3CCCO3)C2)cc1 [Example 458, 1-(imidazo[1,2-a]pyridin-7-ylmethyl)-3-(4-{1-[(2R)-tetrahydrofuran-2-ylcarbonyl]azetidin-3-yl}phenyl)urea]
11 | 0.0777 µM | 0.381 µM | 0.00041 µM | O=C(NCc1ccn2ccnc2c1)Nc1ccc(C2CN(C(=O)[C@@H]3CCCO3)C2)cc1 [Example 459]
12 | 0.0509 µM | 0.569 µM | 0.000307 µM | O=C(NCc1ccn2ccnc2c1)Nc1ccc(C2CN(C(=O)C3CCOCC3)C2)cc1 [Example 460, 1-(imidazo[1,2-a]pyridin-7-ylmethyl)-3-{4-[1-(tetrahydro-2H-pyran-4-ylcarbonyl)azetidin-3-yl]phenyl}urea]
13 | 0.0314 µM | 0.459 µM | 0.000169 µM | O=C(NCc1ccn2ccnc2c1)Nc1ccc(C2CN(C(=O)CC3CCOCC3)C2)cc1 [Example 461, 1-(imidazo[1,2-a]pyridin-7-ylmethyl)-3-{4-[1-(tetrahydro-2H-pyran-4-ylacetyl)azetidin-3-yl]phenyl}urea]
14 | 0.00743 µM | 0.0591 µM | 0.000266 µM | O=C(CC1CCCC1)Nc1ccc(C(=O)NCc2ccc3nccn3c2)c(F)c1 [Example 462, 4-[(cyclopentylacetyl)amino]-2-fluoro-N-(imidazo[1,2-a]pyridin-6-ylmethyl)benzamide]
15 | 0.234 µM | 0.314 µM | 0.000529 µM | O=C(CC1CCCC1)Nc1ccc(C(=O)NCc2ccn3ccnc3c2)c(F)c1 [Example 463, 4-[(cyclopentylacetyl)amino]-2-fluoro-N-(imidazo[1,2-a]pyridin-7-ylmethyl)benzamide]
16 | 0.00679 µM | 0.0634 µM | 0.000169 µM | O=C(NCc1ccn2ccnc2c1)c1ccc(-c2ccc(N3CCOCC3)nc2)s1 [Example 464, N-(imidazo[1,2-a]pyridin-7-ylmethyl)-5-[6-(morpholin-4-yl)pyridin-3-yl]thiophene-2-carboxamide]
17 | 0.000319 µM | 0.0138 µM | 0.000169 µM | CC1(Cn2cc(-c3ccc(C(=O)NCc4ccn5ccnc5c4)s3)cn2)CCCCO1 (stereo not drawn) [Example 465, N-(imidazo[1,2-a]pyridin-7-ylmethyl)-5-{1-[(2-methyltetrahydro-2H-pyran-2-yl)methyl]-1H-pyrazol-4-yl}thiophene-2-carboxamide]
18 | 0.00431 µM | 0.0749 µM | 0.000287 µM | CC(C)(C)OC(=O)N1CCC(Cn2cc(-c3ccc(C(=O)NCc4ccn5ccnc5c4)s3)cn2)CC1 [Example 466, tert-butyl 4-[(4-{5-[(imidazo[1,2-a]pyridin-7-ylmethyl)carbamoyl]thiophen-2-yl}-1H-pyrazol-1-yl)methyl]piperidine-1-carboxylate]
19 | 0.00402 µM | 0.0911 µM | 0.000278 µM | CC(C)CC(=O)N1CCC(c2ccc(C(=O)NCc3ccn4ccnc4c3)s2)C1 (stereo not drawn) [Example 467, N-(imidazo[1,2-a]pyridin-7-ylmethyl)-5-[1-(3-methylbutanoyl)pyrrolidin-3-yl]thiophene-2-carboxamide]
20 | 2.93 µM | > 10 µM | 0.000985 µM | CC(C)C(=O)NC1(c2ccc(C(=O)NCc3ccn4ccnc4c3)s2)CCC1 [Example 468, N-(imidazo[1,2-a]pyridin-7-ylmethyl)-5-{1-[(2-methylpropanoyl)amino]cyclobutyl}thiophene-2-carboxamide]
21 | 3.38 µM | > 10 µM | 0.000432 µM | CC(C)CC(=O)NC1(c2ccc(C(=O)NCc3ccn4ccnc4c3)s2)CCC1 [Example 469, N-(imidazo[1,2-a]pyridin-7-ylmethyl)-5-{1-[(3-methylbutanoyl)amino]cyclobutyl}thiophene-2-carboxamide]
22 | 0.936 µM | 5.58 µM | 0.000456 µM | CC[C@H](C)C(=O)NC1(c2ccc(C(=O)NCc3ccn4ccnc4c3)s2)CCC1 [Example 470, N-(imidazo[1,2-a]pyridin-7-ylmethyl)-5-(1-{[(2S)-2-methylbutanoyl]amino}cyclobutyl)thiophene-2-carboxamide]
23 | 6.51 µM | 3.44 µM | 0.000471 µM | O=C(NC1(c2ccc(C(=O)NCc3ccn4ccnc4c3)s2)CCC1)c1ccccc1 [Example 471, 5-[1-(benzoylamino)cyclobutyl]-N-(imidazo[1,2-a]pyridin-7-ylmethyl)thiophene-2-carboxamide]
24 | 0.963 µM | 2.86 µM | 0.000334 µM | O=C(CC(F)(F)F)NC1(c2ccc(C(=O)NCc3ccn4ccnc4c3)s2)CCC1 [Example 472, N-(imidazo[1,2-a]pyridin-7-ylmethyl)-5-{1-[(3,3,3-trifluoropropanoyl)amino]cyclobutyl}thiophene-2-carboxamide]
25 | 7.85 µM | > 10 µM | 0.00101 µM | O=C(NCc1ccn2ccnc2c1)c1ccc(C2(NC(=O)C3CCOCC3)CCC2)s1 [Example 473, N-(1-{5-[(imidazo[1,2-a]pyridin-7-ylmethyl)carbamoyl]thiophen-2-yl}cyclobutyl)tetrahydro-2H-pyran-4-carboxamide]
26 | 0.879 µM | 1.98 µM | 0.000362 µM | CC(C)(C)OC(=O)N1CC(Oc2ccc(C(=O)NCc3ccn4ccnc4c3)cc2)C1 [Example 474, tert-butyl 3-{4-[(imidazo[1,2-a]pyridin-7-ylmethyl)carbamoyl]phenoxyl}azetidine-1-carboxylate]
27 | 0.00692 µM | 0.00976 µM | 0.000169 µM | O=C(NCc1ccn2ccnc2c1)c1ccc(-c2cnn(CC3CCC3)c2)s1 [Example 475, 5-[1-(cyclobutylmethyl)-1H-pyrazol-4-yl]-N-(imidazo[1,2-a]pyridin-7-ylmethyl)thiophene-2-carboxamide]
28 | 0.00942 µM | 0.0708 µM | 0.000194 µM | O=C(NCc1ccn2ccnc2c1)c1ccc(-c2cnn(CC3CCCO3)c2)o1 (stereo not drawn) [Example 476, N-(imidazo[1,2-a]pyridin-7-ylmethyl)-5-[1-(tetrahydrofuran-2-ylmethyl)-1H-pyrazol-4-yl]furan-2-carboxamide]

— patent US9187472B2 (AbbVie Inc., priority 2012, dated 2015)
